Results from patent publication US20100292135A1 (priority 2005, published 2010).

How the values were obtained:
RecA protein [1] = biological target: T1, RecA protein (Escherichia coli, UniProt P0A7G6); experiment: biochemical; type: binding, E. coli
RecA protein [2] = biological target: T1, RecA protein; conditions: cited from earlier work
RecA protein [3] = biological target: T1, RecA protein; type: biochemical, E. coli
[4] = system: RecA-dependent SOS induction in GY7313 cells; experiment: SOS induction by MMC in permeabilized E. coli (sfi-lacZ reporter, β-galactosidase); type: cell-based; conditions: MMC-induced
[5] = system: wild type (AB1157) bacteria; experiment: Development of chloramphenicol resistance (mean latency time, OD600 growth); type: cell-based; conditions: in the presence of RecA

T1 sequence (P0A7G6 2-353): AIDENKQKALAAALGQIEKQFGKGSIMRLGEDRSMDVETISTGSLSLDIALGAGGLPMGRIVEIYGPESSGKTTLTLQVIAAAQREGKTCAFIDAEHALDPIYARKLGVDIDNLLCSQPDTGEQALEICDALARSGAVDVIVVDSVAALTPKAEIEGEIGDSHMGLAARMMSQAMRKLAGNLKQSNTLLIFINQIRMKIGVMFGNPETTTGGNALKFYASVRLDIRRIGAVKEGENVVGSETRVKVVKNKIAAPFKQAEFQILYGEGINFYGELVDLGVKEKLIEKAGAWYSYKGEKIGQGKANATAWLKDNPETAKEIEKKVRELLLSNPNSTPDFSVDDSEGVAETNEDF

Nc1ncnc2c1ncn2[C@@H]1O[C@H](COP(=O)(O)OP(=O)(O)O)[C@@H](O)[C@H]1O [ADP, adenosine diphosphate]
Kd (RecA protein [1]): 84 ± 27 µM

Nc1ncnc2c1ncn2[C@@H]1O[C@H](COP(=O)(O)OP(=O)(O)OP(=O)(O)O)[C@@H](O)[C@H]1O [ATP, adenosine triphosphate]
S0.5 for ATP, reported literature values (RecA protein [2]): 40 to 45 µM
Hill coefficient nH (RecA protein [3]): 3
Michaelis constant S0.5 for RecA and ATP (RecA protein [3]): 47 µM

O=P(O)(O)OP(=O)(O)OC[C@H]1O[C@@H](n2cnc3c(Nc4cccc5ccccc45)ncnc32)[C@H](O)[C@@H]1O [Compound 1, N^6-(1-Naphthyl)-Adenosine-5′-O-Diphosphate]
inhibition of SOS induction (β-galactosidase) [4]: significantly inhibits SOS induction

CCOS(C)(=O)=O [EMS]
effect on chloramphenicol resistance development [5]: speed resistance development

O[C@@H](CS)[C@@H](O)CS [L-DTT, 1,4-dithio-L-threitol]
inhibition of RecA ATPase activity (in words) (RecA protein [3]): no inhibition

NCCCCNCCCN [spermidine]
effect on chloramphenicol resistance development [5]: retards resistance development
